Test results: patent US6225307A, “Viral treatment” (priority 2000, dated 2001)
pIC50: −log10 of the molar value.

Experiments:
HIV-1 integrase = HIV-1 integrase (Human immunodeficiency virus type 1 group M subtype B, UniProt P12497); assay: Integrase inhibition assay; assay type: biochemical
Excerpt: A biochemical integrase assay described by Craigie et at (HIV, vol. 2: A practical Approach) Biochemistry, Molecular Biology and Drug Discovery Ed. J. Karn 1995) to screen agents for their ability to inhibit HIV-1 integrase. In this system, a kinased oligonucleotide serves as the target of 3' processing and the subsequent strand transfer reaction. The 3' processing reaction involves the removal of 2 nucleotides from the 31 ends of the substrate and this is followed by the strand transfer reaction in which the 3' ends are joined to the exposed 5' ends. The 20 μl reaction mixture contains 25 mM MOPS (pH 7.2), […] BSA, 10 mM , β-mercaptoethanol, 10% glycerol, 7.5 mM MnCl2, 25 nM (7 ng) substrate (Oligo's Etc., Wilsonville, Ore.) and 200 nM (128 ng) integrase (NIAID AIDS Research and Reference Reagent Program, Bethesda, Md.). The reaction proceeds at 37° C. for 1-2 hours and is terminated by the addition of 20 μl of sequencing stop solution (USB Amersham, Arlington Heights, Ill.). The reaction products are visualized by autoradiography following electrophoresis in 15% polyacrylamide 6M Urea gel. The substrate migrates as a 30 mer, the product of 3' processing migrates as an N-2 band and the strand transfer products migrate more slowly at various sizes larger than the substrate.

HIV-1 cell line, CEMSKI = assay: Long term in vitro study, CEMSKI cells, reverse transcriptase analysis; assay type: cell-based; conditions: for Reverse transcriptase data: 7 μg/ml
Description: A microtiter-based reveres transcriptase (RT) reaction is utilized (Buckheit et al (1991) AIDS Research and Human Retroviruses 7:295-302). Tritiated thymidine triphosphate (NEN)(TTP) is resuspended in distilled water at 5 Ci/ml. Poly rA and oligo dT are prepared as a stock solution which is kept at -20° C. The RT reaction buffer is prepared fresh on a daily basis and consists of 125 μl 1M EGTA, 125 μl water, 125 μl Triton X-100, 50 μl Tris (pH 7.4), 50 μl MDDT, and 40 μl 1M MgCl2. These three solutions are mixed together in a ratio of 1 part TTP, 2.5 parts poly rA:oligo dT, 2.5 parts reaction buffer and 4 parts distilled water. Ten microliters of this reaction mixture is placed in a round bottom microtiter place and 15 μl of virus containing supernatant is added and mixed. The plate is incubated at 37° C. and incubated for 60 minutes. Following reaction, the reaction volume is spotted onto filter mats, washed 6 times for 5 minutes each in a 5% sodium phosphate buffer, 2 times for 1 minute each in distilled water, 2 times for 1 minute each in 70% ethanol, and then dried. The dried filter mat is placed in a plastic sample bag, Betaplate scintillation fluid is added and the bag is heat sealed. Incorporated radioactivity is quantified utilizing a Wallac Microbeta scintillation counter.
Acute infection of most established human cell lines with HIV- I results in the eventual establishment of a constitutive virus-producing chronically infected cell line. The cells can be passaged for long periods of time in culture without loss of virus production. These cells may be utilized to evaluate the effects of anti-HIV compounds on syncytium formation or to evaluate the effects of anti-HIV compounds on levels of virus production from these cells. […] Each of the cells contains an integrated HIV genome or provirus. […]
CEM-SS cells chronically infected with HIV isolate, for example SKI (CEM-SKI) are cultured in RPM1640 tissue culture medium supplemented with 10% fetal bovine serum and antibiotics. […] After a period of time, usually one week intervals of drug treatment, cells are evaluated to determine if the inhibitory activity of the compound has been affected by treatment of the cells with either compounds. […]
The cell populations contain integrated copies of the HIV genome and constitutively produce HIV at relatively high levels or are latently infected and only produce virus after stimulation with phorbol esters, tumor necrosis factor or IL6(U1 and ACH2). Reductions in virus products were observed when quantifying supernatant reverse transcriptase activity,
Toxicity Values are measured by XTT and activity of the compound in the tests is measured by a Reverse Transcriptase analysis. […]

In the case of `CCC1(c2cccc(OC(=O)Nc3ccc(Cl)cc3)c2)CCCCN(C)C1=O` (stereo not shown) [(4-chlorophenyl)-carbamic acid, 3-(hexahydro-3-ethyl-1-methyl-2-oxo-1H-azepin-3-yl) 2 phenyl ester], the pIC50 (HIV-1 integrase) was < 3.60, the “activity as an integrase inhibitor” value (HIV-1 integrase) was “did not show activity” and the “HIV-1 integrase inhibition, mean” value (HIV-1 integrase; 0.1 μg/ml) was 9908. For the same compound, the “HIV-1 integrase inhibition, sample 1” value (HIV-1 integrase; 0.1 μg/ml) was 10151.6, the “HIV-1 integrase inhibition, sample 2” value (HIV-1 integrase; 0.1 μg/ml) was 9664.3 and the remaining activity at 0.1 µg/mL (HIV-1 integrase; 0.1 μg/ml, read-out: % no drug control) was 104%. For the same compound, the “HIV-1 integrase inhibition, mean” value (HIV-1 integrase; 1 μg/ml) was 10075, the “HIV-1 integrase inhibition, sample 1” value (HIV-1 integrase; 1 μg/ml) was 9644.6 and the “HIV-1 integrase inhibition, sample 2” value (HIV-1 integrase; 1 μg/ml) was 10505.5. For the same compound, the remaining activity at 1 µg/mL (HIV-1 integrase; 1 μg/ml, read-out: % no drug control) was 105%, the “HIV-1 integrase inhibition, mean” value (HIV-1 integrase; 10 μg/ml) was 10097 and the “HIV-1 integrase inhibition, sample 1” value (HIV-1 integrase; 10 μg/ml) was 10964.5. For the same compound, the “HIV-1 integrase inhibition, sample 2” value (HIV-1 integrase; 10 μg/ml) was 1129.7, the remaining activity at 10 µg/mL (HIV-1 integrase; 10 μg/ml, read-out: % no drug control) was 116% and the “HIV-1 integrase inhibition, mean” value (HIV-1 integrase; 100 μg/ml) was 10942. The “HIV-1 integrase inhibition, sample 1” value (HIV-1 integrase; 100 μg/ml) was 9648.5, the “HIV-1 integrase inhibition, sample 2” value (HIV-1 integrase; 100 μg/ml) was 12235.7 and the remaining activity at 100 µg/mL (HIV-1 integrase; 100 μg/ml, read-out: % no drug control) was 114%. It also gave a Reverse transcriptase data (HIV-1 cell line, CEMSKI; Day 4) of 8474, a Reverse transcriptase data (HIV-1 cell line, CEMSKI; Day 11) of 7217 and a Reverse transcriptase data (HIV-1 cell line, CEMSKI; Day 18) of 9141. For the same compound, the “Reverse transcriptase data, continued test” value (HIV-1 cell line, CEMSKI; run through 222 days) was “data remained consistent”.
